Reference: patent EP3290412A1, “HIV-1 NUCLEOCAPSID INHIBITORS” (Università degli Studi di Siena, priority 2016, dated 2018)

How the values were obtained:
[1] = tested on: Peripheral blood mononuclear cells (PBMC); type: cell-based; conditions: human, 7 days
Method in brief: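 Cytotoxicity measured after 7 days of compound exposure by MTS conversion (OD 490 nm, 4 h). The cells were PHA-activated (5 µg/mL, 2 days) donor PBMC, cultured with 20 IU/mL IL-2 at 1x10^5 cells/well. TD50 is the dose killing 50% versus untreated control, read from the dose-mortality curve.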

NC(11-55) = NC(11-55) (Human immunodeficiency virus type 1, UniProt P12493); experiment: NC inhibition assay (NC-induced cTAR DNA destabilization, fluorescence); type: biochemical, HIV-1; conditions: for inhibition at 100 µM: single point screening, positive = >25% inhibition at 100µM
Method in brief: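 Doubly labelled cTAR (0.1 µM, Alexa488/Dabcyl) pre-complexed with 1 µM Zn-loaded NC(11-55) for 15 min, then compound added for a further 15 min; run at 20 °C in Tris-HCl pH 7.5, 30 mM NaCl, 0.2 mM MgCl2. Fluorescence read at ex 480/em 520 nm. IC50 taken from dose-response fit of % inhibition of NC-induced fluorescence increase.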

SMILES | Proliferation assay PBMC TD50 [1] [nM] | IC50 (NC(11-55)) [µM] | inhibition at 100 µM (NC(11-55)) [%] | TD50 [1] [µM] | HIV-1 nucleocapsid inhibition (result in words) (NC(11-55); same experimental settings as the compounds of the invention)
C[C@H](CC1CCCCC1)NC(=O)c1nc(-c2ccccn2)nc(O)c1O [Compound 64, (R)-N-(1-cyclohexylpropan-2-yl)-5,6-dihydroxy-2-(pyridin-2-yl)pyrimidine-4-carboxamide] | 2500 | 14.5 | > 25 |  | 
CC(NC(=O)c1nc(-c2ccccn2)nc(O)c1O)C1CCCC1 (stereo not drawn) [Compound 65, N-(1-cyclopentylethyl)-5,6-dihydroxy-2-(pyridin-2-yl)pyrimidine-4-carboxamide] | 3100 | 47 | > 25 |  | 
COc1ccc2nc(-c3nc(O)c(O)c(C(=O)N[C@H](C)C4CCCCC4)n3)ccc2c1 [Compound 66, (R)-N-(1-cyclohexylethyl)-5,6-dihydroxy-2-(6-methoxyquinolin-2-yl)pyrimidine-4-carboxamide] | 6600 | 8 | > 25 |  | 
Cc1ccc(-c2nc(O)c(O)c(C(=O)N[C@H](C)C3CCCCC3)n2)nc1C [Compound 67, (R)-N-(1-cyclohexylethyl)-2-(,5,6-dimethylpyridin-2-yl)-5,6-dihydroxypyrimidine-4-carboxamide] | 6700 |  | > 25 |  | 
COc1cc(-c2nc(O)c(O)c(C(=O)N[C@H](C)C3CCCCC3)n2)nc2ccccc12 [Compound 68, N-[(1R)-1-cyclohexylethyl]-2-(4-methoxyquinolin-2-yl)-5,6-bis(oxidanyl)pyrimidine-4-carboxamide] | 2660 |  | > 25 |  | 
COc1ccnc(-c2nc(O)c(O)c(C(=O)N[C@@H](C)C3CCCCC3)n2)c1 [Compound 69, N-[(1S)-1-cyclohexylethyl]-2-(4-methoxypyridin-2-yl)-5,6-bis(oxidanyl)pyrimidine-4-carboxamide] | 7110 | 49 | > 25 |  | 
C[C@@H](NC(=O)c1nc(-c2cc(N3CCN(C)CC3)ccn2)nc(O)c1O)C1CCCCC1 [Compound 76, (R)-N-(1-cyclohexylethyl)-5,6-dihydroxy-2-(4-(4-methylpiperazin-1-yl)pyridin-2-yl)pyrimidine-4-carboxamide] | 2500 | 7 | > 25 |  | 
COc1ccnc(-c2nc(O)c(O)c(C(=O)NC3CCC(C)(C)CC3)n2)c1 [Compound 77, N-(4,4-dimethylcyclohexyl)-5,6-dihydroxy-2-(4-methoxypyridin-2-yl)pyrimidine-4-carboxamide] | 2200 | 23.5 | > 25 |  | 
C[C@H](NC(=O)c1nc(-c2cc(Cl)ccn2)nc(O)c1O)C1CCCCC1 [Compound 78, (S)-2-(4-chloropyridin-2-yl)-N-(1-cyclohexylethyl)-5,6-dihydroxypyrimidine-4-carboxamide] | 1900 | 18 | > 25 |  | 
Cc1ccnc(-c2nc(O)c(O)c(C(=O)N[C@@H](C)C3CCCCC3)n2)c1 [Compound 79, (S)-N-(1-cyclohexylethyl)-5,6-dihydroxy-2-(4-methylpyridin-2-yl)pyrimidine-4-carboxamide] | 2300 | 41 | > 25 |  | 
C[C@H](NC(=O)c1nc(-c2nccc3ccccc23)nc(O)c1O)C1CCCCC1 [Compound 80, (S)-N-(1-cyclohexylethyl)-5,6-dihydroxy-2-(isoquinolin-1-yl)pyrimidine-4-carboxamide] | 2000 | 11 | > 25 |  | 
C[C@H](NC(=O)c1nc(-c2ccc(N)cn2)nc(O)c1O)C1CCCCC1 [Compound 81, (S)-2-(5-aminopyridin-2-yl)-N-(1-cyclohexylethyl)-5,6-dihydroxypyrimidine-4-carboxamide] | 1400 | 22 | > 25 |  | 
CC(NC(=O)c1nc(-c2cc(Cl)ccn2)nc(O)c1O)C1CCC(F)(F)CC1 (stereo not drawn) [Compound 87, 2-(4-chloropyridin-2-yl)-N-(1-(4,4-difluorocyclohexyl)ethyl)-5,6-dihydroxypyrimidine-4-carboxamide] | 3220 | 41 | > 25 |  | 
C[C@@H](NC(=O)c1nc(-c2cc(CCN)ccn2)nc(O)c1O)C1CCCCC1 [Compound 88, (R)-2-(4-(2-aminoethyl)pyridin-2-yl)-N-(1-cyclohexylethyl)-5,6-dihydroxypyrimidine-4-carboxamide] | 3250 | 7.5 | > 25 |  | 
CCNS(=O)(=O)c1ccc(-c2nc(O)c(O)c(C(=O)N[C@H](C)C3CCCCC3)n2)nc1 [Compound 89, (R)-N-(1-cyclohexylethyl)-2-(5-(N-ethylsulfamoyl)pyridin-2-yl)-5,6-dihydroxypyrimidine-4-carboxamide] | 3290 | 28 | > 25 |  | 
C[C@@H](NC(=O)c1nc(-c2cc(CCNCc3cccn3C)ccn2)nc(O)c1O)C1CCCCC1 [Compound 91, (R)-N-(1-cyclohexylethyl)-5,6-dihydroxy-2-(4-(2-(((1-methyl-1H-pyrrol-2-yl)methyl)amino)ethyl)pyridin-2-yl)pyrimidine-4-carboxamide] | 1090 | 12 | > 25 |  | 
C[C@@H](NC(=O)c1nc(-c2cc(CCN(C)C)ccn2)nc(O)c1O)C1CCCCC1 [Compound 92, (R)-N-(1-cyclohexylethyl)-2-(4-(2-(dimethylamino)ethyl)pyridin-2-yl)-5,6-dihydroxypyrimidine-4-carboxamide] | 2020 | 10 | > 25 |  | 
C[C@@H](NC(=O)c1nc(-c2ccc(CN3CCCC3)cn2)nc(O)c1O)C1CCCCC1 [Compound 93, (R)-N-(1-cyclohexylethyl)-5,6-dihydroxy-2-(5-(pyrrolidin-1-ylmethyl)pyridin-2-yl)pyrimidine-4-carboxamide] | 1870 | 50 | > 25 |  | 
Cc1nnc(C(=O)NC(C)(C)c2nc(C(=O)NCc3ccc(F)cc3)c(O)c(=O)n2C)o1 [Raltegravir™, Raltegravir, reference compound] |  |  |  | > 50 | inactive
